From ChEMBL document CHEMBL1145498, “A systematic interaction map of validated kinase inhibitors with Ser/Thr kinases” (Proc Natl Acad Sci U S A, 2007)

Each compound was assayed against T1, 3-phosphoinositide-dependent protein kinase 1 (Homo sapiens) (UniProt O15530).
T1 sequence (whole entry): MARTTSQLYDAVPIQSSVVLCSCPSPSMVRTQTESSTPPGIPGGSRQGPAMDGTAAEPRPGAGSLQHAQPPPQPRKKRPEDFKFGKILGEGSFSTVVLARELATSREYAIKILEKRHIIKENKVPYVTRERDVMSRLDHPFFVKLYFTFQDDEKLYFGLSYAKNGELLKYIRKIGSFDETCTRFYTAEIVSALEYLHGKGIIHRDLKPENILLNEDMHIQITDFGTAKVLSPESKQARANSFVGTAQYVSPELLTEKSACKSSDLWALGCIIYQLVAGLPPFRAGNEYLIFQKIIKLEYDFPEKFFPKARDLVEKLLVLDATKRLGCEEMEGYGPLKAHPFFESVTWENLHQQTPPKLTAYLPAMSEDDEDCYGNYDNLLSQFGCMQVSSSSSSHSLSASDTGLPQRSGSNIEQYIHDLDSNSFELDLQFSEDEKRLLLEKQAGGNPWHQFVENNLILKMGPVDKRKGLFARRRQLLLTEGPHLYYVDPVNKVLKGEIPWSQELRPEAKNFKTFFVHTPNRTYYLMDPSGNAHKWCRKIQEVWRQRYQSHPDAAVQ

Row | ΔTm | SMILES
1 | 0 °C | O=c1cc(N2CCOCC2)oc2c(-c3ccccc3)cccc12
2 | -0.1 °C | CN(C)CC1CCn2c(c(C3=C(c4c[nH]c5ccccc45)C(=O)NC3=O)c3ccccc32)C1 (configuration not stated)
3 | -0.1 °C | O=[N+]([O-])c1ccc(-c2nc(-c3ccc(F)cc3)c(-c3ccncc3)[nH]2)cc1

These compounds were tested against Serine/threonine-protein kinase RIO2 (Homo sapiens) (UniProt Q9BVS4).

Row | ΔTm | SMILES
4 | 1 °C | O=c1cc(N2CCOCC2)oc2c(-c3ccccc3)cccc12
5 | 0.7 °C | CN(C)CC1CCn2c(c(C3=C(c4c[nH]c5ccccc45)C(=O)NC3=O)c3ccccc32)C1 (configuration not stated)
6 | 2.5 °C | O=[N+]([O-])c1ccc(-c2nc(-c3ccc(F)cc3)c(-c3ccncc3)[nH]2)cc1

What follows are compounds tested against Ribosomal protein S6 kinase alpha-3 (Homo sapiens) (UniProt P51812).
Ribosomal protein S6 kinase alpha-3 (Homo sapiens), sequence (P51812 whole entry): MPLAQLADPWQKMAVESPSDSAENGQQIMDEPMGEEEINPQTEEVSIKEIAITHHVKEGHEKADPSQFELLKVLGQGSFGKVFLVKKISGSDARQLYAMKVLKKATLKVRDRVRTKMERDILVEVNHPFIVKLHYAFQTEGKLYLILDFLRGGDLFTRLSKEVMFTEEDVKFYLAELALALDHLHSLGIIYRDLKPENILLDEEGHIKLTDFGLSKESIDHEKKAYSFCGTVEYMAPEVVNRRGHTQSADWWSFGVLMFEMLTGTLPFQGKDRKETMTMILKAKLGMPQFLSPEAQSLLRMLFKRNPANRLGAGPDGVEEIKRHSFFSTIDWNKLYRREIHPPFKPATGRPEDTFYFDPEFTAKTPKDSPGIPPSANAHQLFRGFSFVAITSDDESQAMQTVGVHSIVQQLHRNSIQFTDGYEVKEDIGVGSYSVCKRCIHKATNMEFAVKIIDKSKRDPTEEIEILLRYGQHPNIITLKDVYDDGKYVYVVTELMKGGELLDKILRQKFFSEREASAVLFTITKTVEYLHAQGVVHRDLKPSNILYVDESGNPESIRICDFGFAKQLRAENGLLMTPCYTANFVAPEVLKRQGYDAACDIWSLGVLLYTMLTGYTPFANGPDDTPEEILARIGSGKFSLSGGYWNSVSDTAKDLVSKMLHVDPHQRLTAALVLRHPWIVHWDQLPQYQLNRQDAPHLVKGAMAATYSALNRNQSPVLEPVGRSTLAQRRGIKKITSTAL

Row | ΔTm | SMILES
7 | 0 °C | O=c1cc(N2CCOCC2)oc2c(-c3ccccc3)cccc12
8 | 7.4 °C | CN(C)CC1CCn2c(c(C3=C(c4c[nH]c5ccccc45)C(=O)NC3=O)c3ccccc32)C1 (configuration not stated)
9 | 1.8 °C | O=[N+]([O-])c1ccc(-c2nc(-c3ccc(F)cc3)c(-c3ccncc3)[nH]2)cc1

These compounds were tested against TRAF2 and NCK-interacting protein kinase (Homo sapiens) (UniProt Q9UKE5).

Row | ΔTm | SMILES
10 | -0.2 °C | O=c1cc(N2CCOCC2)oc2c(-c3ccccc3)cccc12
11 | 0.5 °C | CN(C)CC1CCn2c(c(C3=C(c4c[nH]c5ccccc45)C(=O)NC3=O)c3ccccc32)C1 (configuration not stated)
12 | 4.6 °C | O=[N+]([O-])c1ccc(-c2nc(-c3ccc(F)cc3)c(-c3ccncc3)[nH]2)cc1

These compounds were tested against Serine/threonine-protein kinase Chk2 (Homo sapiens, UniProt O96017).
Serine/threonine-protein kinase Chk2, sequence (O96017 whole entry): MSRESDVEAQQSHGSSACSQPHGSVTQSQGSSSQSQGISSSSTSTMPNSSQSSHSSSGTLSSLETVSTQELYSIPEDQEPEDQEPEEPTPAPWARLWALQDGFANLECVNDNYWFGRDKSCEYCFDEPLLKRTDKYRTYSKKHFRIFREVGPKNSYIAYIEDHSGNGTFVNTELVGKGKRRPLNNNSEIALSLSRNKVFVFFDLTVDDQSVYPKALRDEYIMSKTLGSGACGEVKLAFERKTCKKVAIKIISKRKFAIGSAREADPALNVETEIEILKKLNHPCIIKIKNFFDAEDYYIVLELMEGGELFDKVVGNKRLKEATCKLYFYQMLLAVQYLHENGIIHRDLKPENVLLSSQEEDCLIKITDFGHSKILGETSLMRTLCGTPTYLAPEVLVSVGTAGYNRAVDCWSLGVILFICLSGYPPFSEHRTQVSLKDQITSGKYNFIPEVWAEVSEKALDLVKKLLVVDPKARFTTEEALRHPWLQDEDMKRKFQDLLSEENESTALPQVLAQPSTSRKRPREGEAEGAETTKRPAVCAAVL

Row | ΔTm | SMILES
13 | -0.4 °C | O=c1cc(N2CCOCC2)oc2c(-c3ccccc3)cccc12
14 | 0.6 °C | CN(C)CC1CCn2c(c(C3=C(c4c[nH]c5ccccc45)C(=O)NC3=O)c3ccccc32)C1 (configuration not stated)
15 | -0.4 °C | O=[N+]([O-])c1ccc(-c2nc(-c3ccc(F)cc3)c(-c3ccncc3)[nH]2)cc1

What follows are compounds tested against Tyrosine-protein kinase JAK1 (Homo sapiens) (UniProt P23458).
Tyrosine-protein kinase JAK1 (Homo sapiens), sequence (P23458 whole entry): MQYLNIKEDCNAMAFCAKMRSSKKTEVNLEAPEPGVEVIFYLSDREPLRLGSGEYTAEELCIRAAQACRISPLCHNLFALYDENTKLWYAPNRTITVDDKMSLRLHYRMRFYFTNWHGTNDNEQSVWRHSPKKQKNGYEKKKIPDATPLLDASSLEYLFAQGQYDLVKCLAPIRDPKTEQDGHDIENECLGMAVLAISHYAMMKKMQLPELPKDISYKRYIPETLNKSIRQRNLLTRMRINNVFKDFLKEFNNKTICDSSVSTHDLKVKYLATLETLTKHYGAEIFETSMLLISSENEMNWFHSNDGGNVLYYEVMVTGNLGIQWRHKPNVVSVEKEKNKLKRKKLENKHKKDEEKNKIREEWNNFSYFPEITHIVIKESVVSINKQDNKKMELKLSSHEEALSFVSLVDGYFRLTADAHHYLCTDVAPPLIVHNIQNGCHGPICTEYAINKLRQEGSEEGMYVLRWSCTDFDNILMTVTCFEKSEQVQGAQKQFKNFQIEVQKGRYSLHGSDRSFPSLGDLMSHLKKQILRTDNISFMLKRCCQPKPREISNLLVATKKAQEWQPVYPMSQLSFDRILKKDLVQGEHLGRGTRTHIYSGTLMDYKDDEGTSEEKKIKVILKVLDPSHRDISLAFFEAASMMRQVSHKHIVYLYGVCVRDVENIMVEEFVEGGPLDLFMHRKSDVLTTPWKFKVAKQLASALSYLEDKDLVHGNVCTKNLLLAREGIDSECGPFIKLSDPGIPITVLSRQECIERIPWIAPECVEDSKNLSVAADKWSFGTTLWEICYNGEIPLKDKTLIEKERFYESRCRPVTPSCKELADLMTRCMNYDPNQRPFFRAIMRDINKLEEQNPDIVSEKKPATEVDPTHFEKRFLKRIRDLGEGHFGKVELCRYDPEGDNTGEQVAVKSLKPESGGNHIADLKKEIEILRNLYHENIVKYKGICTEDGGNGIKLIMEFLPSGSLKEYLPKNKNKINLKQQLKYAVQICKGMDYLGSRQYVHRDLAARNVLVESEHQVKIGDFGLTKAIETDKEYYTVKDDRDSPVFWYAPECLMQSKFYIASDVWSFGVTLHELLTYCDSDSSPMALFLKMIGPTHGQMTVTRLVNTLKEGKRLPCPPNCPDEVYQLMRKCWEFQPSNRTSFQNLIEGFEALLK

Row | ΔTm | SMILES
16 | 0.6 °C | O=c1cc(N2CCOCC2)oc2c(-c3ccccc3)cccc12
17 | -1.5 °C | CN(C)CC1CCn2c(c(C3=C(c4c[nH]c5ccccc45)C(=O)NC3=O)c3ccccc32)C1 (configuration not stated)
18 | 3.7 °C | O=[N+]([O-])c1ccc(-c2nc(-c3ccc(F)cc3)c(-c3ccncc3)[nH]2)cc1

The compounds below were run against Dual specificity protein kinase CLK1 (Homo sapiens) (UniProt P49759).
Dual specificity protein kinase CLK1 (Homo sapiens), sequence (P49759 whole entry, looked up): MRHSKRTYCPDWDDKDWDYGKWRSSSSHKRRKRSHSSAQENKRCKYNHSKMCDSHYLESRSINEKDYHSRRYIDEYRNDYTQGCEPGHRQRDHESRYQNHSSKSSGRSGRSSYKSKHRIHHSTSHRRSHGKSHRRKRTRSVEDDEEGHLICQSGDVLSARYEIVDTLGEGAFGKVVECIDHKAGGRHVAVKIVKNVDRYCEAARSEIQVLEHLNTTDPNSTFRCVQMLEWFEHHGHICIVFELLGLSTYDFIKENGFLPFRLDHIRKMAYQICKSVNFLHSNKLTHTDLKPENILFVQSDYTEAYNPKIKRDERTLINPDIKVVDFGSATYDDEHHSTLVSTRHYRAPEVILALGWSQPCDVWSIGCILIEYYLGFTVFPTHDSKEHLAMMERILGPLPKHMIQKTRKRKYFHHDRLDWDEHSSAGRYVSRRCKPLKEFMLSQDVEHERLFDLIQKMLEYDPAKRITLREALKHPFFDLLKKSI

Row | ΔTm | SMILES
19 | 1.3 °C | O=c1cc(N2CCOCC2)oc2c(-c3ccccc3)cccc12
20 | 2 °C | CN(C)CC1CCn2c(c(C3=C(c4c[nH]c5ccccc45)C(=O)NC3=O)c3ccccc32)C1 (configuration not stated)
21 | -1.2 °C | O=[N+]([O-])c1ccc(-c2nc(-c3ccc(F)cc3)c(-c3ccncc3)[nH]2)cc1

What follows are compounds tested against Serine/threonine-protein kinase Nek6 (Homo sapiens) (UniProt Q9HC98).

Row | ΔTm | SMILES
22 | -0.5 °C | O=c1cc(N2CCOCC2)oc2c(-c3ccccc3)cccc12
23 | -0.9 °C | CN(C)CC1CCn2c(c(C3=C(c4c[nH]c5ccccc45)C(=O)NC3=O)c3ccccc32)C1 (configuration not stated)
24 | 0.9 °C | O=[N+]([O-])c1ccc(-c2nc(-c3ccc(F)cc3)c(-c3ccncc3)[nH]2)cc1

Each compound was assayed against 5'-AMP-activated protein kinase catalytic subunit alpha-2 (Homo sapiens) (UniProt P54646).
5'-AMP-activated protein kinase catalytic subunit alpha-2 (Homo sapiens), sequence (P54646 whole entry, looked up): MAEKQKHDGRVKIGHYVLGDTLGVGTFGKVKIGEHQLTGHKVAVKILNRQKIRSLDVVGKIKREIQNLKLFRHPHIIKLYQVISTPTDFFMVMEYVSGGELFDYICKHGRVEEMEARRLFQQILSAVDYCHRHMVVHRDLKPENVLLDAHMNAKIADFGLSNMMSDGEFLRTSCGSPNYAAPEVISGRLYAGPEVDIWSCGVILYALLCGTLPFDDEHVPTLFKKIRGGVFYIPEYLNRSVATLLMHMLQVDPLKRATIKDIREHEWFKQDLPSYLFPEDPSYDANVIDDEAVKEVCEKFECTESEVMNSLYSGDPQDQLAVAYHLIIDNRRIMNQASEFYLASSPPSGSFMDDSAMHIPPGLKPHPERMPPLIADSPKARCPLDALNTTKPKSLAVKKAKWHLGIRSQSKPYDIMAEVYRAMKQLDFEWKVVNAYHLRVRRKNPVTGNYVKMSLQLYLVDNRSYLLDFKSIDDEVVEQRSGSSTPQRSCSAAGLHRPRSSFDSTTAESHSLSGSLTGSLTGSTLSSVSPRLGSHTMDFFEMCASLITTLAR

Row | ΔTm | SMILES
25 | -0.9 °C | O=c1cc(N2CCOCC2)oc2c(-c3ccccc3)cccc12
26 | -0.5 °C | CN(C)CC1CCn2c(c(C3=C(c4c[nH]c5ccccc45)C(=O)NC3=O)c3ccccc32)C1 (configuration not stated)
27 | -0.4 °C | O=[N+]([O-])c1ccc(-c2nc(-c3ccc(F)cc3)c(-c3ccncc3)[nH]2)cc1

Each compound was assayed against Casein kinase I isoform gamma-3 (Homo sapiens) (UniProt Q9Y6M4).
Casein kinase I isoform gamma-3 (Homo sapiens), sequence (Q9Y6M4 whole entry, looked up, canonical isoform): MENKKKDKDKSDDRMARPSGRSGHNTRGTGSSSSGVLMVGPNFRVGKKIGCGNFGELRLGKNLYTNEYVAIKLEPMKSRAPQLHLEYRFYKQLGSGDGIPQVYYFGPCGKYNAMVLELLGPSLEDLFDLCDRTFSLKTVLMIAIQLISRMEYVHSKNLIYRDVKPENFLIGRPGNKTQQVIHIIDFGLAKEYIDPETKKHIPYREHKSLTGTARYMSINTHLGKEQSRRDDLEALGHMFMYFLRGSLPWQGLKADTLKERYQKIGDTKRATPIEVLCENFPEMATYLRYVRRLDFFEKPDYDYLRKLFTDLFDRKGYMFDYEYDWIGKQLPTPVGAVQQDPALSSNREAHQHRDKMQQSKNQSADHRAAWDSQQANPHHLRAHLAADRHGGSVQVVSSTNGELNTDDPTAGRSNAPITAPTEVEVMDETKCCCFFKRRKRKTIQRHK

Row | ΔTm | SMILES
28 | 0.7 °C | O=c1cc(N2CCOCC2)oc2c(-c3ccccc3)cccc12
29 | 0.8 °C | CN(C)CC1CCn2c(c(C3=C(c4c[nH]c5ccccc45)C(=O)NC3=O)c3ccccc32)C1 (configuration not stated)
30 | 2.6 °C | O=[N+]([O-])c1ccc(-c2nc(-c3ccc(F)cc3)c(-c3ccncc3)[nH]2)cc1

The compounds below were run against cAMP-dependent protein kinase catalytic subunit alpha (Homo sapiens) (UniProt P17612).

Row | ΔTm | SMILES
31 | -0.1 °C | O=c1cc(N2CCOCC2)oc2c(-c3ccccc3)cccc12
32 | 2.2 °C | CN(C)CC1CCn2c(c(C3=C(c4c[nH]c5ccccc45)C(=O)NC3=O)c3ccccc32)C1 (configuration not stated)
33 | 1.6 °C | O=[N+]([O-])c1ccc(-c2nc(-c3ccc(F)cc3)c(-c3ccncc3)[nH]2)cc1

Each compound was assayed against T2, Dual specificity mitogen-activated protein kinase kinase 6 (Homo sapiens) (UniProt P52564).
T2 sequence (whole entry): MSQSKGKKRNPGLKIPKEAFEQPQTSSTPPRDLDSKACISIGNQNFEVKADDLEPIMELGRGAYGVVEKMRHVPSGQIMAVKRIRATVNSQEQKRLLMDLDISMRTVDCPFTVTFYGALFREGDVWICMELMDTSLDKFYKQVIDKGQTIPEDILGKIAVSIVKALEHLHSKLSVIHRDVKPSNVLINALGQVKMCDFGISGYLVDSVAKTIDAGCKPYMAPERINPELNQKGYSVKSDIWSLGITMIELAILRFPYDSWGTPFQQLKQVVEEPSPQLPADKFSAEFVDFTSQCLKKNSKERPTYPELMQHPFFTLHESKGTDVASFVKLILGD

Row | ΔTm | SMILES
34 | 0.4 °C | O=c1cc(N2CCOCC2)oc2c(-c3ccccc3)cccc12
35 | 0.8 °C | CN(C)CC1CCn2c(c(C3=C(c4c[nH]c5ccccc45)C(=O)NC3=O)c3ccccc32)C1 (configuration not stated)
36 | 0 °C | O=[N+]([O-])c1ccc(-c2nc(-c3ccc(F)cc3)c(-c3ccncc3)[nH]2)cc1

What follows are compounds tested against STE20-like serine/threonine-protein kinase (Homo sapiens) (UniProt Q9H2G2).

Row | ΔTm | SMILES
37 | -0.1 °C | O=c1cc(N2CCOCC2)oc2c(-c3ccccc3)cccc12
38 | 4.2 °C | CN(C)CC1CCn2c(c(C3=C(c4c[nH]c5ccccc45)C(=O)NC3=O)c3ccccc32)C1 (configuration not stated)
39 | 5.4 °C | O=[N+]([O-])c1ccc(-c2nc(-c3ccc(F)cc3)c(-c3ccncc3)[nH]2)cc1

Each compound was assayed against Mitogen-activated protein kinase 3 (Homo sapiens, UniProt P27361).
Mitogen-activated protein kinase 3, sequence (P27361 whole entry): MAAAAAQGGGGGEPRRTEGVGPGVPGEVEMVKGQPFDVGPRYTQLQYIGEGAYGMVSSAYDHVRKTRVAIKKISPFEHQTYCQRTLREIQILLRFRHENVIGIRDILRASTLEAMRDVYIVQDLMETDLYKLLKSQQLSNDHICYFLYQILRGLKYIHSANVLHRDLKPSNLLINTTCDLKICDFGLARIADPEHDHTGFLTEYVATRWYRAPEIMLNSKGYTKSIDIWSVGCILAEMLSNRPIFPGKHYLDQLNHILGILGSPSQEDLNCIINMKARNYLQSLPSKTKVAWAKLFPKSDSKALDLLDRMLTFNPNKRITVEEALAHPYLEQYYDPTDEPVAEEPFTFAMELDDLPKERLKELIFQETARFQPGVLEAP

Row | ΔTm | SMILES
40 | -0.6 °C | O=c1cc(N2CCOCC2)oc2c(-c3ccccc3)cccc12
41 | -0.2 °C | CN(C)CC1CCn2c(c(C3=C(c4c[nH]c5ccccc45)C(=O)NC3=O)c3ccccc32)C1 (configuration not stated)
42 | 0.5 °C | O=[N+]([O-])c1ccc(-c2nc(-c3ccc(F)cc3)c(-c3ccncc3)[nH]2)cc1

The compounds below were run against Casein kinase I isoform gamma-2 (Homo sapiens) (UniProt P78368).
Casein kinase I isoform gamma-2 (Homo sapiens), sequence (P78368 whole entry, looked up, canonical isoform): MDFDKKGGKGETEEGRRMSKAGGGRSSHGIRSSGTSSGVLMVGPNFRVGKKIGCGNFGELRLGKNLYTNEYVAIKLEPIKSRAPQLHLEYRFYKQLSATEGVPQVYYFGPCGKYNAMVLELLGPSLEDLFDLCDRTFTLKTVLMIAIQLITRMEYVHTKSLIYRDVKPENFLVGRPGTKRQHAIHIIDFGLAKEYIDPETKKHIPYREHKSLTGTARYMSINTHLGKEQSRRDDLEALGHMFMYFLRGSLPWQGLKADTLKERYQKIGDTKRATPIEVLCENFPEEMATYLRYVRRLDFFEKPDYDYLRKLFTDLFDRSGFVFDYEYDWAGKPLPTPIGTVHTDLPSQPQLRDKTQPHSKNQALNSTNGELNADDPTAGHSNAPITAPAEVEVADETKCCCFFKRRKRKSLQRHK

Row | ΔTm | SMILES
43 | 0.4 °C | O=c1cc(N2CCOCC2)oc2c(-c3ccccc3)cccc12
44 | 0.3 °C | CN(C)CC1CCn2c(c(C3=C(c4c[nH]c5ccccc45)C(=O)NC3=O)c3ccccc32)C1 (configuration not stated)
45 | 1.7 °C | O=[N+]([O-])c1ccc(-c2nc(-c3ccc(F)cc3)c(-c3ccncc3)[nH]2)cc1

The compounds below were run against Calcium/calmodulin-dependent protein kinase type II subunit alpha (Homo sapiens) (UniProt Q9UQM7).

Row | ΔTm | SMILES
46 | 0.5 °C | O=c1cc(N2CCOCC2)oc2c(-c3ccccc3)cccc12
47 | 1.6 °C | CN(C)CC1CCn2c(c(C3=C(c4c[nH]c5ccccc45)C(=O)NC3=O)c3ccccc32)C1 (configuration not stated)
48 | 2.2 °C | O=[N+]([O-])c1ccc(-c2nc(-c3ccc(F)cc3)c(-c3ccncc3)[nH]2)cc1

Each compound was assayed against T3, Calcium/calmodulin-dependent protein kinase type IV (Homo sapiens) (UniProt Q16566).
T3 sequence (whole entry): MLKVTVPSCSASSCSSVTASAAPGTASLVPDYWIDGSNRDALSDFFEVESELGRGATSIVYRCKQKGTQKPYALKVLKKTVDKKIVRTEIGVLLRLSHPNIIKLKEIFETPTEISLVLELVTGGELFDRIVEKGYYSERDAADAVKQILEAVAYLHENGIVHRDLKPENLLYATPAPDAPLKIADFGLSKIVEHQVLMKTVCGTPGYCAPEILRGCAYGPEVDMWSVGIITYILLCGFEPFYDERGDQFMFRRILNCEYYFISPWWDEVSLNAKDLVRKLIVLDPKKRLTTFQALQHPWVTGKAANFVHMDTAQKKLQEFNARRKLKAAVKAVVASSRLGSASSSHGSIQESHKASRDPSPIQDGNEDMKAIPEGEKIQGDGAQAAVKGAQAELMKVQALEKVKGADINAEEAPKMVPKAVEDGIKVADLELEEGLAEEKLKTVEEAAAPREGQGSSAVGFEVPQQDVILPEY

Row | ΔTm | SMILES
49 | 1 °C | O=c1cc(N2CCOCC2)oc2c(-c3ccccc3)cccc12
50 | -0.2 °C | CN(C)CC1CCn2c(c(C3=C(c4c[nH]c5ccccc45)C(=O)NC3=O)c3ccccc32)C1 (configuration not stated)
51 | -0.2 °C | O=[N+]([O-])c1ccc(-c2nc(-c3ccc(F)cc3)c(-c3ccncc3)[nH]2)cc1

What follows are compounds tested against T4, Serine/threonine-protein kinase VRK3 (Homo sapiens) (UniProt Q8IV63).
T4 sequence (whole entry): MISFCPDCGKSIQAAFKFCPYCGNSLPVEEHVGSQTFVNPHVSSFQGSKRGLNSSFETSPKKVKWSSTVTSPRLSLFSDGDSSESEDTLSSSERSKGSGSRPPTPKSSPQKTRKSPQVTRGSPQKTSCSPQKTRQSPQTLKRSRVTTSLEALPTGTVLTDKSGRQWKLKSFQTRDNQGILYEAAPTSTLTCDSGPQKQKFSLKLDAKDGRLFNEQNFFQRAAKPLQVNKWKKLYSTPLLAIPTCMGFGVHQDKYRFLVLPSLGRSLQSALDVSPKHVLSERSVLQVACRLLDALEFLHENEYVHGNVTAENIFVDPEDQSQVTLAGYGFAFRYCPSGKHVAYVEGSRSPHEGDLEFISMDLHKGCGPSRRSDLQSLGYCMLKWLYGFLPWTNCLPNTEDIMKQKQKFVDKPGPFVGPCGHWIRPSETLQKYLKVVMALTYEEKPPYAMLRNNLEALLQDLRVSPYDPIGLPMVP

Row | ΔTm | SMILES
52 | 0.6 °C | O=c1cc(N2CCOCC2)oc2c(-c3ccccc3)cccc12
53 | 0.6 °C | CN(C)CC1CCn2c(c(C3=C(c4c[nH]c5ccccc45)C(=O)NC3=O)c3ccccc32)C1 (configuration not stated)
54 | 0.4 °C | O=[N+]([O-])c1ccc(-c2nc(-c3ccc(F)cc3)c(-c3ccncc3)[nH]2)cc1

The compounds below were run against Calcium/calmodulin-dependent protein kinase kinase 2 (Homo sapiens, UniProt Q96RR4).

Row | ΔTm | SMILES
55 | 0.4 °C | O=c1cc(N2CCOCC2)oc2c(-c3ccccc3)cccc12
56 | -0.8 °C | CN(C)CC1CCn2c(c(C3=C(c4c[nH]c5ccccc45)C(=O)NC3=O)c3ccccc32)C1 (configuration not stated)
57 | -0.5 °C | O=[N+]([O-])c1ccc(-c2nc(-c3ccc(F)cc3)c(-c3ccncc3)[nH]2)cc1
